The values that follow come from US4591637A, “Open chain-morpholino adriamycins” (priority 1985, dated 1986).

For data set [1], the system named is RNA synthesis in L-1210 Cells. Briefly: inhibition of RNA synthesis in L1210 cells in vitro. It is filed as cell-based. The note with it: Mus musculus. On the procedure: (§1) An in vitro test measured inhibition of DNA and RNA synthesis in L-1210 Cells in the method described by Tong, G., et al, J Med Chem (1976) 19:395. ED50 levels (the dose at which 50% inhibition occurs) were computed and ED50 ratios for DNA/RNA determined.
(§2) The compounds prepared in Examples 1-5 were tested for in vitro DNA and RNA synthesis inhibition activity and in vivo for ability to increase survival time in mice injected with P-388 leukemia cells as described above. The relative solubility in octanol and phosphate buffer, expressed as log10 p, was also determined, as well as the ΔTm of isolated helical DNA synthesized in the in vitro test.

The subject of another data set is isolated helical DNA. Put plainly: ΔTm of isolated helical DNA. It counts as binding. On the procedure: as §2
Data set [2] deals with DNA synthesis in L-1210 Cells. Briefly: inhibition of DNA synthesis in L1210 cells in vitro. It counts as cell-based. The note with it: Mus musculus. On the procedure: as §1, §2
A short description of a further data set: physchem. It counts as physicochemical. The following applies: octanol-phosphate buffer, pH 7.4. On the procedure:
as §2

The subject of the next data set is P-388 leukemia. Put plainly: survival time of mice injected with P-388 leukemia cells. It counts as in vivo. The note with it: mouse P388, qd 1, 10 mg/kg; T/C = treated survival time/untreated survival time×100. On the procedure:
Survival times and % T/C (treated survival time/untreated survival time×100) were determined, as well as dosage levels required.
The relative solubility in octanol and phosphate buffer, expressed as log10 p, was also determined, as well as the ΔTm of isolated helical DNA synthesized in the in vitro test.

Setting [3] is: L1210 cells, RNA synthesis, ED50 = dose at which 50% inhibition occurs, read-out: L1210 cells inhib of synth, ED50, RNA.
Where [4] appears, read: L1210 cells, DNA synthesis, ED50 = dose at which 50% inhibition occurs, read-out: L1210 cells inhib of synth, ED50, DNA.
The mark [5] stands for this setting: read-out: log10 p, octanol-phosphate buffer at pH 7.4.
The mark [6] stands for this setting: L1210, read-out: L1210 cells inhib of synth, ED50, RNA.
The mark [7] stands for this setting: L1210, read-out: L1210 cells inhib of synth, ED50, DNA.

Each structure is given as a SMILES string. Where two headings read alike, the source gives them in different places.

`COc1cccc2c1C(=O)c1c(O)c3c(c(O)c1C2=O)C[C@@](O)(C(C)=O)C[C@@H]3O[C@H]1C[C@H](N)[C@H](O)[C@H](C)O1` [Daunorubicin, daunorubicin, reference compound]: the IC50 turned out to be 0.33 µM in data set [1] (setting [3]) and 0.66 µM in data set [2] (setting [4]). The “ΔTm of isolated helical DNA” value in the data set with isolated helical DNA turned out to be 10.5 °C. Besides, the logD in “physchem” (setting [5]) came to 0.66.
On to `COc1cccc2c1C(=O)c1c(O)c3c(c(O)c1C2=O)C[C@@](O)(C(=O)CO)C[C@@H]3O[C@H]1C[C@H](N)[C@H](O)[C@H](C)O1` [Doxorubicin, doxorubicin, reference compound], for which, in the data set on P-388 leukemia, the “Mouse P388 qd 1, % T/C (mg/kg)” value was 258 % T/C. Besides, the IC50 in data set [1] (setting [3]) was determined as 0.58 µM; in data set [2] (setting [4]) it was 1.6 µM. Also, the “ΔTm of isolated helical DNA” value with isolated helical DNA amounted to 12.8 °C. For the same compound, the logD in “physchem” is 0.07.
Regarding `COCC(C#N)N[C@H]1C[C@H](O[C@H]2C[C@](O)(C(C)=O)Cc3c(O)c4c(c(O)c32)C(=O)c2c(OC)cccc2C4=O)O[C@@H](C)[C@H]1O` (stereo partly drawn) [N--(1-cyano-2-methoxy-ethyl)daunorubicin, N-(1-cyano-2-methoxyethyl)Dau], the IC50 in data set [1] (setting [6]) and in data set [2] (setting [7]) was 0.51 µM each time. Also, the logD in “physchem” (setting [5]) worked out at 2.64.
In the case of `COCC(C#N)N[C@H]1C[C@H](O[C@H]2C[C@](O)(C(=O)CO)Cc3c(O)c4c(c(O)c32)C(=O)c2c(OC)cccc2C4=O)O[C@@H](C)[C@H]1O` (stereo partly drawn) [N--(1-cyano-2-methoxy-ethyl)doxorubicin, N-(1-cyano-2-methoxyethyl)doxorubicin], the IC50 in data set [1] (setting [6]) was determined as 0.4 µM; in data set [2] (setting [7]) it was 0.8 µM. For the same compound, the “ΔTm of isolated helical DNA” value with isolated helical DNA came to 12.5 °C.
The corresponding values for `COc1cccc2c1C(=O)c1c(O)c3c(c(O)c1C2=O)C[C@@](O)(C(C)=O)C[C@@H]3O[C@H]1C[C@H](NCC#N)[C@H](O)[C@H](C)O1` [N--(cyanomethyl)-daunorubicin, N-(cyanomethyl)daunorubicin] are 0.82 µM, 1.75 µM and 11.7 °C.
For `COc1cccc2c1C(=O)c1c(O)c3c(c(O)c1C2=O)C[C@@](O)(C(=O)CO)C[C@@H]3O[C@H]1C[C@H](NCC#N)[C@H](O)[C@H](C)O1` [N--(cyanomethyl)-doxorubicin] the same measures were 0.29 µM, 1.2 µM and 13.9 °C.
